Assay results reported in patent publication US9328099B2, “Cyanomethylpyrazole carboxamides as janus kinase inhibitors” (Merck Sharp & Dohme Corp., priority 2011, dated 2016).

Legend:
JAK1 = JAK1 (Homo sapiens (Human), UniProt P23458); test: Jak Biochemical HTRF Assay, JAK1; settings: HTRF biochemical assay, GST-tagged catalytic domain; top concentration tested […]; read-out: JAK1 IC50
Text: (§1) Jak Biochemical HTRF Assay Protocol
(§2) Subsequent reagent additions employed an Agilent Bravo.

JAK2 = JAK2 (Homo sapiens (Human), UniProt O60674); test: Jak Biochemical HTRF Assay, JAK2; settings: HTRF biochemical assay, GST-tagged catalytic domain; top concentration tested […]
JAK2, sequence (O60674 849-1124): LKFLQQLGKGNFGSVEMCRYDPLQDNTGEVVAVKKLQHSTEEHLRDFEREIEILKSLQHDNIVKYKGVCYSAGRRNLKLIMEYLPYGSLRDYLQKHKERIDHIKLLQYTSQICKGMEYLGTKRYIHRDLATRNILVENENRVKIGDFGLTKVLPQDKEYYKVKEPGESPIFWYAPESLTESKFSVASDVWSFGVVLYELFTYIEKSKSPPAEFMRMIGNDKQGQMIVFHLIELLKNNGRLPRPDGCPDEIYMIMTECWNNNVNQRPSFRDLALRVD
Text: as §1, §2

JAK1, sequence (P23458 875-1153): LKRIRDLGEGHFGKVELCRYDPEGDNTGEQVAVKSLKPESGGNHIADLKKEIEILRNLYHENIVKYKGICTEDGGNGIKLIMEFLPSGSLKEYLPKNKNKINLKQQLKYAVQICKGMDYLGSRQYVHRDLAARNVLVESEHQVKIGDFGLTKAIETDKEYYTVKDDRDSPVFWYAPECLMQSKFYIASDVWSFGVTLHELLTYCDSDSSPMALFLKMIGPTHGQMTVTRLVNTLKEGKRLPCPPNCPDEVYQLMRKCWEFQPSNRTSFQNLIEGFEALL

Compound | IC50 (JAK1) | IC50 (JAK2)
N#CCC1(n2cc(C(N)=O)c(Nc3ccnc(F)c3)n2)CCN(CC2CCCCC2)CC1 [Example 22-3, 1-[4-(cyanomethyl)-1-(cyclohexylmethyl)piperidin-4-yl]-3-[(2-fluoropyridin-4-yl)amino]-1H-pyrazole-4-carboxamide] | 1 nM | 57 nM
Cc1c[nH]c(CN2CCC(CC#N)(n3cc(C(N)=O)c(Nc4ccnc(F)c4)n3)CC2)n1 [Example 22-4, 1-{4-(cyanomethyl)-1-[(4-methyl-1H-imidazol-2-yl)methyl]piperidin-4-yl}-3-[(2-fluoropyridin-4-yl)amino]-1H-pyrazole-4-carboxamide] | 74 nM | 1180 nM
N#CCC1(n2cc(C(N)=O)c(Nc3ccc(F)cc3)n2)CCN(CC2CCCCC2)CC1 [Example 22-6, 1-[4-(cyanomethyl)-1-(cyclohexylmethyl)piperidin-4-yl]-3-[(4-fluorophenyl)amino]-1H-pyrazole-4-carboxamide] | 6 nM | 211 nM
N#CCC1(n2cc(C(N)=O)c(Nc3ccc(F)cc3)n2)CCN(Cc2ccccc2)CC1 [Example 22-7, 1-[1-benzyl-4-(cyanomethyl)piperidin-4-yl]-3-[(4-fluorophenyl)amino]-1H-pyrazole-4-carboxamide] | 0.3 nM | 13 nM
N#CCC1(n2cc(C(N)=O)c(Nc3ccnc(F)c3)n2)CCN(Cc2ccccc2F)CC1 [Example 22-9, 1-[4-(cyanomethyl)-1-(2-fluorobenzyl)piperidin-4-yl]-3-[(2-fluoropyridin-4-yl)amino]-1H-pyrazole-4-carboxamide] | 0.06 nM | 2 nM
N#CCC1(n2cc(C(N)=O)c(Nc3ccnc(F)c3)n2)CCN(Cc2cccc(F)c2)CC1 [Example 22-10, 1-[4-(cyanomethyl)-1-(3-fluorobenzyl)piperidin-4-yl]-3-[(2-fluoropyridin-4-yl)amino]-1H-pyrazole-4-carboxamide] | 0.07 nM | 3 nM
N#CCC1(n2cc(C(N)=O)c(Nc3ccnc(F)c3)n2)CCN(Cc2cn3ccccc3n2)CC1 [Example 22-12, 1-[4-(cyanomethyl)-1-(imidazo[1,2-a]pyridin-2-ylmethyl)piperidin-4-yl]-3-[(2-fluoropyridin-4-yl)amino]-1H-pyrazole-4-carboxamide] | 124 nM | > 1500 nM
Cc1ncc(CN2CCC(CC#N)(n3cc(C(N)=O)c(Nc4ccnc(F)c4)n3)CC2)s1 [Example 22-15, 1-{4-(cyanomethyl)-1-[(2-methyl-1,3-thiazol-5-yl)methyl]piperidin-4-yl}-3-[(2-fluoropyridin-4-yl)amino]-1H-pyrazole-4-carboxamide] | 1 nM | 18 nM
CC1(C)CC(CN2CCC(CC#N)(n3cc(C(N)=O)c(Nc4ccnc(F)c4)n3)CC2)CCO1 (centres unmarked) [Example 22-16, 1-{4-(cyanomethyl)-1-[(2,2-dimethyltetrahydro-2H-pyran-4-yl)methyl]piperidin-4-yl}-3-[(2-fluoropyridin-4-yl)amino]-1H-pyrazole-4-carboxamide] | 5 nM | 122 nM
N#CCC1(n2cc(C(N)=O)c(Nc3ccnc(F)c3)n2)CCN(Cc2cnn3ccccc23)CC1 [Example 22-17] | 17 nM | 503 nM
N#CCC1(n2cc(C(N)=O)c(Nc3ccnc(F)c3)n2)CCN(Cc2ccnc3[nH]ccc23)CC1 [Example 22-18, 1-[4-(cyanomethyl)-1-(1H-pyrrolo[2,3-b]pyridin-4-ylmethyl)piperidin-4-yl]-3-[(2-fluoropyridin-4-yl)amino]-1H-pyrazole-4-carboxamide] | 2 nM | 72 nM
N#CCC1(n2cc(C(N)=O)c(Nc3ccnc(F)c3)n2)CCN(Cc2ccco2)CC1 [Example 22-19, 1-[4-(cyanomethyl)-1-(furan-2-ylmethyl)piperidin-4-yl]-3-[(2-fluoropyridin-4-yl)amino]-1H-pyrazole-4-carboxamide] | 0.7 nM | 25 nM
N#CCC1(n2cc(C(N)=O)c(Nc3ccnc(F)c3)n2)CCN(Cc2ccc3[nH]ccc3c2)CC1 [Example 22-20, 1-[4-(cyanomethyl)-1-(1H-indol-5-ylmethyl)piperidin-4-yl]-3-[(2-fluoropyridin-4-yl)amino]-1H-pyrazole-4-carboxamide] | 2 nM | 31 nM
N#CCC1(n2cc(C(N)=O)c(Nc3ccnc(F)c3)n2)CCN(Cc2cccc3cc[nH]c23)CC1 [Example 22-21, 1-[4-(cyanomethyl)-1-(1H-indol-7-ylmethyl)piperidin-4-yl]-3-[(2-fluoropyridin-4-yl)amino]-1H-pyrazole-4-carboxamide] | 0.7 nM | 41 nM
N#CCC1(n2cc(C(N)=O)c(Nc3ccnc(F)c3)n2)CCN(Cc2cccnc2F)CC1 [Example 22-23, 1-{4-(cyanomethyl)-1-[(2-fluoropyridin-3-yl)methyl]piperidin-4-yl}-3-[(2-fluoropyridin-4-yl)amino]-1H-pyrazole-4-carboxamide] | 0.1 nM | 6 nM

More lines, in order of falling IC50 (JAK1), values ahead:

IC50 (JAK1) | IC50 (JAK2) | Compound
100 nM | > 1500 nM | CC(C)(O)C1CC(CN2CCC(CC#N)(n3cc(C(N)=O)c(Nc4ccnc(F)c4)n3)CC2)C1 (centres unmarked) [Example 22-24, 1-[4-(cyanomethyl)-1-{[3-(1-hydroxy-1-methylethyl)cyclobutyl]methyl}piperidin-4-yl]-3-[(2-fluoropyridin-4-yl)amino]-1H-pyrazole-4-carboxamide]
6 nM | 70 nM | N#CCC1(n2cc(C(N)=O)c(Nc3ccnc(F)c3)n2)CCN(Cc2cn[nH]c2)CC1 [Example 22-5, 1-[4-(cyanomethyl)-1-(1H-pyrazol-4-ylmethyl)piperidin-4-yl]-3-[(2-fluoropyridin-4-yl)amino]-1H-pyrazole-4-carboxamide]
3 nM | 39 nM | N#CCC1(n2cc(C(N)=O)c(Nc3ccnc(F)c3)n2)CCN(Cc2ccn[nH]2)CC1 [Example 22-13, 1-[4-(cyanomethyl)-1-(1H-pyrazol-5-ylmethyl)piperidin-4-yl]-3-[(2-fluoropyridin-4-yl)amino]-1H-pyrazole-4-carboxamide]
0.6 nM | 28 nM | N#CCC1(n2cc(C(N)=O)c(Nc3ccnc(F)c3)n2)CCN(Cc2cnccn2)CC1 [Example 22-14, 1-[4-(cyanomethyl)-1-(pyrazin-2-ylmethyl)piperidin-4-yl]-3-[(2-fluoropyridin-4-yl)amino]-1H-pyrazole-4-carboxamide]
0.4 nM | 13 nM | Cc1cnc(F)c(CN2CCC(CC#N)(n3cc(C(N)=O)c(Nc4ccnc(F)c4)n3)CC2)c1 [Example 22-22, 1-{4-(cyanomethyl)-1-[(2-fluoro-5-methylpyridin-3-yl)methyl]piperidin-4-yl}-3-[(2-fluoropyridin-4-yl)amino]-1H-pyrazole-4-carboxamide]
0.1 nM | 6 nM | N#CCC1(n2cc(C(N)=O)c(Nc3ccnc(F)c3)n2)CCN(Cc2ccccc2)CC1 [Example 22-8, 1-[1-benzyl-4-(cyanomethyl)piperidin-4-yl]-3-[(2-fluoropyridin-4-yl)amino]-1H-pyrazole-4-carboxamide]
0.1 nM | 4 nM | N#CCC1(n2cc(C(N)=O)c(Nc3ccnc(F)c3)n2)CCN(Cc2ccc(F)cc2)CC1 [Example 22-11, 1-[4-(cyanomethyl)-1-(4-fluorobenzyl)piperidin-4-yl]-3-[(2-fluoropyridin-4-yl)amino]-1H-pyrazole-4-carboxamide]
